Laboratory results from PubChem BioAssay AID1159563 (GlaxoSmithKline (GSK), 2015).
Calls of active or inactive are those of the source. How the calls were made is not given here.

System: HepG2 cytotoxicity
Experiment: human hepatoma cell viability loss – cytotoxicity control (AID 1159563)

Row | SMILES | IC50
1 | O=C(NCCc1ccccn1)C(c1cn[nH]c1)N1CCN(c2ccc(Cl)c(Cl)c2)CC1 (configuration not stated) | > 100 µM (inactive)
2 | CS(=O)(=O)N1CCC(Nc2ncc(Br)c(Nc3cccc(F)c3C(N)=O)n2)CC1 | > 100 µM (inactive)
3 | COc1ncc(-c2ccc3nccc(-c4ccncc4)c3c2)cc1NS(C)(=O)=O | > 100 µM (inactive)
4 | CCNc1cc(-c2ccccn2)nc(Nc2ccc(OC)cc2)n1 | 40 µM
5 | OCC1CCCCN1c1cc(-c2ccccn2)nc(Nc2ccccc2)n1 (configuration not stated) | 32 µM
6 | CCCc1nc2nc(N)nc(N)c2cc1CC | 20 µM
7 | CCOc1cnn(C)c(=O)c1Nc1ccc(C(=O)NCc2ccc(F)cc2)cc1 | > 100 µM (inactive)
8 | O=C(NCC1CCCCC1)c1cc(=O)c2ccccc2o1 | 25 µM
9 | CCCCCNC(=O)c1c[nH]c2ccc(S(=O)(=O)N(C)c3ccc(OCC)cc3)cc2c1=O | > 100 µM (inactive)
10 | CCC1Oc2cc(S(=O)(=O)N(C)CC(=O)N3CCc4ccccc4C3)c(C)cc2NC1=O (configuration not stated) | > 100 µM (inactive)
11 | CCOc1ccc(OCC(=O)N2c3ccccc3CC2C(=O)NC)cc1 (configuration not stated) | > 100 µM (inactive)
12 | CCc1ccccc1[C@@H](C)NC(=O)c1cnc2c(cnn2CC)c1NC1CCN(C(N)=O)CC1 | > 100 µM (inactive)
13 | Cc1ccc2nc(N(Cc3cccnc3)C(=O)CCc3ccccc3)sc2c1 | > 100 µM (inactive)
14 | COCc1cnc2c(c1SCc1c(F)cccc1Cl)c(=O)n(C)c(=O)n2C | > 100 µM (inactive)
15 | CS(=O)(=O)NC1CCC(Oc2cc3cnccc3cc2-c2ccsc2)CC1 (configuration not stated) | 63 µM
16 | COc1ccc([N+](=O)[O-])cc1NC(=O)Nc1cccc(Cl)c1 | > 100 µM (inactive)
17 | O=C(Nc1nc(-c2ccccn2)cs1)N1C[C@H]2C[C@@]2(c2ccccc2)C1 | 25 µM
18 | CCCc1cc(C(=O)Nc2ncc(-c3cccc(Br)c3)n2C)n[nH]1 | > 100 µM (inactive)
19 | CC(C)C[C@H](NC(=O)c1ccc(-c2ccccc2)o1)C(=O)NC1(C#N)CC1 | > 100 µM (inactive)
20 | NS(=O)(=O)c1ccc(CNC(=O)c2ccc([N+](=O)[O-])s2)cc1 | 16 µM
21 | CN(CCOc1ccc(Cl)cc1)Cc1nc(N)nc(N(C)C)n1 | > 100 µM (inactive)
22 | O=C(N1CCc2ccccc2CC1)C1(C(=O)N2CCC(n3c(=O)[nH]c4ncccc43)CC2)CC1 | > 100 µM (inactive)
23 | COc1cccc(CN(C)Cc2nc(N)c3c(C)c(C)sc3n2)c1 | 40 µM
24 | NC(=O)c1ccsc1NC(=O)c1ccc([N+](=O)[O-])s1 | > 100 µM (inactive)
25 | CNc1cncc(C2CCCN2C(=O)Cc2coc3cc(C)ccc23)n1 (configuration not stated) | > 100 µM (inactive)
26 | c1ccc(Nc2nc(-c3ccccn3)cc(N3CCOCC3)n2)cc1 | > 100 µM (inactive)

Row | SMILES | IC50
27 | COc1ccc2ncc(=O)n(CCN3CCC(NCc4ccc(-c5cccs5)cc4)CC3)c2n1 | 13 µM
28 | Nc1nc(-c2ccccn2)nc(N)c1Cc1c(F)cccc1Cl | 20 µM
29 | CN(C)CCN(C)Cc1ccc(F)cc1NS(=O)(=O)c1ccc(Cl)c(Cl)c1 | 40 µM
30 | O=C(NC(c1ccc(Cl)cc1)c1cnccn1)C1CCN(C(=O)Nc2cccc(C(F)(F)F)c2)CC1 (configuration not stated) | > 100 µM (inactive)
31 | O=C(CC1(O)C(=O)N(Cc2ccccc2)c2ccc(Br)cc21)c1cccnc1 (configuration not stated) | 63 µM
32 | CNC(=O)Oc1ccc(C(=O)NCc2ccccc2)cc1OC(=O)NC | > 100 µM (inactive)
33 | CCOc1cc(NCCCN2CCN(C)CC2)c2ncccc2c1 | 32 µM
34 | CN(C)Cc1ccc(N2CCC(NS(=O)(=O)c3ccc(Cl)cc3)CC2)cc1 | 50 µM
35 | CN(Cc1nc2ccccc2s1)C(=O)C=Cc1cc2ccccc2o1 | > 100 µM (inactive)
36 | COc1cc2c(cc1OC)[C@H]1[C@@H](C)c3ccc(OC)c(OC)c3CN1CC2 | > 100 µM (inactive)
37 | CNS(=O)(=O)c1ccccc1Nc1nc(Nc2ccnn2C)ncc1Cl | 50 µM
38 | CNc1nc(C)nc(N2CCc3cc(C(=O)NCc4ccc(-c5nccn5C)cc4Cl)ccc32)n1 | 32 µM
39 | CCC(CC)C(=O)Nc1cccc(C(=O)Nc2nnc(C3CCCCC3)s2)c1 | > 100 µM (inactive)
40 | CC(=Cc1ccccc1)CN1CCC(=O)N(Cc2cccnc2)CC1 | > 100 µM (inactive)
41 | COc1cc(-c2noc(CC#N)n2)ccc1OC(F)F | > 100 µM (inactive)
42 | COc1ccc(C)cc1-c1csc(NC(=O)C(C)n2ccnc2)n1 (configuration not stated) | > 100 µM (inactive)
43 | CC1CCCCN1C(=O)NCCc1coc(-c2ccc(F)cc2)n1 (configuration not stated) | > 100 µM (inactive)
44 | CC(=O)Nc1cccc(Nc2ncnc3nc[nH]c23)c1 | > 100 µM (inactive)
45 | COc1ccc2ncc(=O)n(CCN3CCOC(CNCc4ccc(C(F)(F)F)cc4F)C3)c2n1 (configuration not stated) | > 100 µM (inactive)
46 | CCCNC(=O)Nc1cccc(-c2nc3ncccc3o2)c1 | > 100 µM (inactive)
47 | O=C1COC(c2ccccc2)(c2ccccc2)CN1C1CCN(Cc2ccc(-n3ccnc3)cc2)CC1 | 50 µM
48 | COc1ccc(C(=O)Nc2ccc(NC(=O)CO)cc2)cc1 | > 100 µM (inactive)
49 | COc1ccc(C(=O)Nc2cc(C(F)(F)F)ccc2N2CCOCC2)c(OC)c1 | > 100 µM (inactive)
50 | CS(=O)(=O)NC1CCC(Nc2ncc(Br)c(Nc3ccccc3C(N)=O)n2)CC1 (configuration not stated) | > 100 µM (inactive)
51 | CN(C)S(=O)(=O)c1ccc(Cl)c(C(=O)Nc2nc(-c3ccccn3)cs2)c1 | > 100 µM (inactive)
52 | O=C(Cn1cnc2c(-c3ccccc3)csc2c1=O)N1CCCCC1 | > 100 µM (inactive)

Row | SMILES | IC50
53 | Cn1cncc1CN1CCC2(CC1)COC(Cc1ccccc1)C2 (configuration not stated) | > 100 µM (inactive)
54 | N#CN1CC[C@@H](NC(=O)Nc2ccccc2Oc2ccccc2)C1 | 40 µM
55 | CCCn1c(NC(=O)Cc2ccc(Cl)cc2)nc2ccccc21 | > 100 µM (inactive)
56 | N#Cc1ccccc1S(=O)(=O)N1CCN(C(=O)CNC(=O)c2ccc3c(c2)OCO3)CC1 | > 100 µM (inactive)
57 | CCN(CC)S(=O)(=O)c1ccc(OC)c(NC(=O)c2ccc([N+](=O)[O-])s2)c1 | > 100 µM (inactive)
58 | COc1ccccc1C(=O)Nc1nnc(-c2ccc3c(c2)OCO3)s1 | > 100 µM (inactive)
59 | Cc1cc(C)cc(NS(=O)(=O)c2cc(-c3cc(C)[nH]n3)ccc2C)c1 | 63 µM
60 | Cc1[nH]n2c(=O)c3c(nc2c1-c1ccc(Cl)cc1)CCCC3 | > 100 µM (inactive)
61 | Cc1cc(Br)sc1CNCCCNc1cc(=O)c2ccccc2[nH]1 | 40 µM
62 | OCCCNc1nc(Nc2ccncc2)nc2ccccc12 | > 100 µM (inactive)
63 | CS(=O)(=O)c1ccccc1C(=O)N(Cc1ccccc1)c1ccccc1 | > 100 µM (inactive)
64 | Cc1cc2cncn2c(C2CCCCN2C(=O)c2cccs2)n1 (configuration not stated) | > 100 µM (inactive)
65 | CC1CCCN(S(=O)(=O)c2ccc(C(=O)Nc3nc(-c4ccccn4)cs3)cc2)C1 (configuration not stated) | 40 µM
66 | Cc1ccc(NC(=O)c2ccnc(N3CCCC3)c2)cc1-c1ccsc1C(N)=O | > 100 µM (inactive)
67 | CCc1cc(C(=O)Nc2nccn2-c2ccccc2)cs1 | > 100 µM (inactive)
68 | CC(C(=O)Nc1ccccc1F)N(C)CC(=O)Nc1cccc2ccccc12 (configuration not stated) | > 100 µM (inactive)
69 | COc1ccccc1-c1c(C)[nH]c2nc(N)nc(C)c12 | > 100 µM (inactive)
70 | Cc1cc(N2CCc3ccccc3C2)nc(Nc2ccc(S(=O)(=O)N3CCOCC3)cc2)n1 | > 100 µM (inactive)
71 | O=C(NCCc1ccn(-c2ccccc2)n1)C1CCCCC1 | > 100 µM (inactive)
72 | O=C(Nc1ccc(Br)c(Cl)c1)Nc1ccc2c(c1)OCO2 | > 100 µM (inactive)
73 | O=C(c1cccc(Nc2ncc(-c3ccc4c(c3)OCO4)cn2)c1)N1CCSC1 | 10 µM
74 | Cc1cc(NC(=O)c2ccc([N+](=O)[O-])s2)ccc1Br | 40 µM
75 | Cc1nc(C(=O)Nc2ccc3c(c2)OCO3)nn1-c1ccc(F)cc1 | > 100 µM (inactive)
76 | CNC(=O)C1Cc2ccccc2N1C(=O)COc1cccc(OC)c1 (configuration not stated) | > 100 µM (inactive)
77 | c1ccc2sc(Nc3nc4ncccc4[nH]3)nc2c1 | 20 µM
78 | COc1ccc(NS(=O)(=O)c2cc(NC(=O)c3ccc([N+](=O)[O-])s3)ccc2OC)cc1 | > 100 µM (inactive)

Row | SMILES | IC50
79 | COc1cc(Nc2nccc(Nc3onc(C)c3C)n2)cc(S(=O)(=O)C2CCOCC2)c1 | 32 µM
80 | O=C(c1cnn(-c2ccccc2)n1)N1CCCC(n2ccnc2)C1 (configuration not stated) | > 100 µM (inactive)
81 | O=C(Nc1ccc(S(=O)(=O)N2CCCC2)cc1)c1ccc([N+](=O)[O-])s1 | 6.3 µM
82 | CC(C)(C)Nc1nc(-c2ccccn2)nc2ccccc12 | 20 µM
83 | N#Cc1ccc(Br)cc1[N+](=O)[O-] | 20 µM
84 | CCCCn1nnnc1CSc1nc(C)cc(C)c1C#N | > 100 µM (inactive)
85 | CN(Cc1cc2ccccc2s1)c1ncc2c(N)nc(N)nc2n1 | 40 µM
86 | Cn1nc(C(=O)N2CCc3ccccc32)c2c1CCS(=O)(=O)C2 | > 100 µM (inactive)
87 | COc1cccc(C(=O)[C@H]2C[C@@H]2CN(Cc2ccccn2)Cc2ccccn2)c1 | > 100 µM (inactive)
88 | NC(=O)c1cc(F)ccc1Nc1nc(NC2CCC(O)CC2)ncc1Cl (configuration not stated) | > 100 µM (inactive)
89 | c1ccc(-c2nc(NC3CCCCC3)cc(C3CC3)n2)nc1 | 40 µM
90 | COc1ccc(C2CC(c3ccccc3Cl)=NN2C(=O)CNC(=O)C2CCCC2)cc1 (configuration not stated) | > 100 µM (inactive)
91 | CN(Cc1ccc(C(N)=O)cc1)C(c1ccc(F)cc1)c1cccnc1 (configuration not stated) | > 100 µM (inactive)
92 | CC(C)(C)C(Cn1ccnc1)NC(=O)c1ccc2nc(C3CC3)oc2c1 (configuration not stated) | > 100 µM (inactive)
93 | Cc1cc(N(C)C)nc2ccc(Cc3cnc(N)nc3N)cc12 | 32 µM
94 | O=C(Nc1ncc([N+](=O)[O-])s1)C1CC1 | > 100 µM (inactive)
95 | COc1ccc2c(Cl)c(C(=O)N3CCC3)sc2c1Cl | > 100 µM (inactive)
96 | CCOc1ccccc1C(=O)Nc1nnc(-c2ccc3c(c2)OCO3)s1 | > 100 µM (inactive)
97 | O=C(CN1CCN(c2ccccn2)CC1)Nc1cc(S(=O)(=O)N2CCCCCC2)ccc1Cl | > 100 µM (inactive)
98 | O=C(Nc1nc2cc(Cl)ccc2o1)c1cccc(Cl)c1 | > 100 µM (inactive)
99 | NC(=O)c1ccccc1Nc1nc(NC2CCCCC2)nc2[nH]ccc12 | 20 µM
100 | COc1ccc(Cc2nc(-c3ncc4cccnc4c3O)n[nH]2)cc1OC | 50 µM
101 | N#Cc1cccc(CN2CCC(c3nc(-c4ccc(C(F)(F)F)nc4)no3)CC2)c1 | > 100 µM (inactive)
102 | COc1ccc2ncc(F)c(NC(=O)C3(O)CCC(NCc4ccc5c(c4)OCCO5)CC3)c2n1 (configuration not stated) | 50 µM
